Results taken from US20240300943A1, “NOVEL SALTS OF HETEROCYCLIC COMPOUND AS PROTEIN KINASE INHIBITOR AND USES THEREOF” (HK INNO.N CORPORATION, priority 2021, published 2024).

Experiments:
[1] = system: anti-CD3 and anti-CD28-activated PBMC of patients with atopic dermatitis; assay: IL-13, IL-10 and TNF-α secretion in activated PBMC of atopic patients; type: cell-based, human; settings: 100 nM and 1,000 nM, 24 hours, FIG. 9
Procedure: 50 μL of DNase I (2000 unit/mL) was added to 50 mL of cell culture medium and mixed. (Since enzyme and cells were used, the medium was heated in a 37° C. water bath before use.) In addition, PMBC of atopic patients was rapidly dissolved in a 37° C. water bath.
PMBC was slowly flowed into the prepared medium, and reacted at 37° C. for five minutes. Centrifugation was performed using a centrifuge at 200 rpm for 15 minutes, after which supernatants were removed, suspended in 1 mL of cell culture medium, and counted.
Cells were diluted in cell culture medium and seeded in a 96-well plate to reach 2×10^5 cells/100 μL/well.
50 μL of PBMC activation medium (0.5 μg/ml CD3 antibody, 5 μg/ml CD28 antibody) was added to every well except the negative control well. (50 μL of cell culture medium was added to each negative control well.)
50 μL of the test material was added to each well according to each concentration. (final concentration of 1 nM, 10 nM, 100 nM, 1,000 nM, 50 μL of cell culture medium was added to each negative control well.)
After incubation in a 5% CO2 incubator at 37° C. for 24 hours, the plates were centrifuged at 200 rpm for 15 minutes as they were, and 150 μL of the suspension was taken, placed in a 96-well round bottom plate, and stored in a deep freezer at minus 80° C.
After the culture supernatant samples were dissolved, ELISA was performed according to the data sheet protocol of ELISA kit.

[2] = system: DSS-induced animal model (C57BL/6J mice); assay: DSS-induced colitis model; type: in vivo; settings: oral
Procedure: To induce colitis in C57BL/6J mice, drinking water was treated with 3% dextran sodium sulphate (DSS) and provided each morning for eight days, and a negative control group was provided with 0% DSS.
After mice were grouped into several groups (day O), the mice were orally dosed with 0.5% methylcellulose and Compound 1 obtained according to Preparation Example 1 as a test material at 9 a.m. and 5 p.m. every day from day 1 to day 7. Test animals were autopsied on day 8.
Disease activity index (DAI) was calculated as body weight, fecal […], and fecal blood score to represent the severity of the disease. Body weight and food intake were monitored and evaluated at the start of the study and every 24 hours, and fecal samples were collected on days 0, 3, 5, and 7 and analyzed according to Table 6 below.
After measuring the weight and length of the colon obtained by autopsy, the weight-to-length ratio was calculated.
On day 8, blood was drawn from the heart into a centrifuge tube containing EDTA-K2 anticoagulant. After centrifugation (7000 rpm, 10 minutes, 4° C.), plasma was separated, and KC and MIP-2 were measured by Meso Scale Discovery Kit.
The mRNA was extracted from a portion of large intestine tissues (same location for each animal) to analyze an expression level of MX2 and TNF-alpha in the tissues through qPCR.
The large intestine part fixed with 10% formalin was cut with paraffin and stained with hematoxylin-eosin. The criteria for histological changes in the colon followed Table 7 below.

[3] = system: DNCB-induced animal model (NC/Nga mice); assay: DNCB-induced atopic dermatitis model (topical); type: in vivo; settings: for Reduction of scratching behavior compared to the control group (vehicle): week 4, FIG. 12
Procedure: NC/Nga mice were anesthetized with isoflurane and the dorsal hair (from the bottom of the ear to the top of the tail) was then removed. The NC/Nga mice were left for 24 hours for recovery of fine wounds on the shaved skin.
After healing, 200 μL of 1%1-chloro-2,4-dinitrobenzene (DNCB) in acetone/olive oil (3:1) was topically applied to the dorsal skin (primary skin application). Secondary skin application was performed after three days for sensitization.
Seven days after the primary skin application, 150 μL of 0.4% DNCB in acetone/olive oil (3:1) was topically applied, and applied to the dorsal skin three times a week for five weeks.
The phosphate of Compound 1 (hereinafter, referred to as a phosphate compound) obtained according to Example 3 was used as a test material, and the test material was treated before applying DNCB from two weeks after the primary skin application. The dosage of the test material was calculated based on a body weight of mice measured on the day of administration, and the test material was topically applied to atopic skin using a glass stick (a total of 56 times twice a day for 28 days, six hours at a treatment interval). 0.5% methylcellulose (0.5% MC) was administered to the control group (vehicle).
Week 6 after the primary skin application, the test animals were autopsied. Specifically, the test animals were anesthetized using isoflurane, and as much blood as possible was drawn from the caudal vena cava with a syringe and stored in a 5 mL vacuum tube containing a blood clot activator. The blood was allowed to stand at room temperature for 15-20 minutes for coagulation and then centrifuged at 3000 rpm for 10 minutes.
Atopic dermatitis scores were rated as none (0), mild (1), moderate (2), and severe (3) for each of the five symptoms (erythema, dryness, skin edema and hematoma, erosion, and keratinization). The total dermatitis score representing clinical severity was defined as the sum of all scores (maximum score: 15). The evaluation was conducted twice a week by the same researcher at the same time.
To evaluate a scratching behavior at week 4, mice were placed in cages and the frequency of scratching was evaluated for 30 minutes.
Quantitative analysis was performed using a serum IgE and histamine with ELISA kit.
After measuring a weight of the spleen and mouse, a spleen-to-body weight ratio (relative organ weight) was calculated.
TARC, TSLP, IL-4, IL-1B and TNF-α were quantified using skin tissue through qRT-PCR.
On the day of autopsy, the skin in 10% neutral buffered formalin solution was analyzed by staining with H & E and toluidine blue.

SMILES: C[C@@H]1CN(C(=O)CC#N)CC=C1c1cc(NC(=O)C2CC2)nc2[nH]ccc12 [Compound 1, (S)—N-(4-(1-(2-cyanoacetyl)-3-methyl-1,2,3,6-tetrahydropyridin-4-yl)-1H-pyrrolo[2,3-b]pyridin-6-yl)cyclopropanecarboxamide]
- IL-10 secretion [1]: significantly reduced
- IL-13 secretion [1]: significantly reduced
- TNF-α secretion [1]: significantly reduced
- Disease activity index (DAI) ([2]; 90 mg/kg, FIG. 21): reduced to half that of the control group (vehicle)
- Weight-to-length ratio of colon ([2]; FIG. 22): lower value compared to the control group (vehicle)
- Histopathological score ([2]; FIG. 24): lowered
- KC concentration in plasma ([2]; day 8, FIG. 23): decreased
- MIP-2 concentration in plasma ([2]; day 8, FIG. 23): decreased
- Expression level of MX2 in the colon ([2]; qPCR, FIG. 23): decreased
- Expression level of TNF-alpha in the colon ([2]; qPCR, FIG. 23): decreased
- Degree of increase in disease activity index (DAI) ([2]; twice daily day 1 to day 7, FIG. 21): lower than that of the control group (vehicle)

SMILES: C[C@@H]1CN(C(=O)CC#N)CC=C1c1cc(NC(=O)C2CC2)nc2[nH]ccc12 [Example 3, (S)—N-(4-(1-(2-cyanoacetyl)-3-methyl-1,2,3,6-tetrahydropyridin-4-yl)-1H-pyrrolo[2,3-b]pyridin-6-yl)cyclopropanecarboxamide]
- Reduction of scratching behavior compared to the control group (vehicle) ([3]; 3% phosphate compound): at least 50%
- Skin severity score (clinical atopic dermatitis score) ([3]; FIG. 11): significantly reduced
- Spleen-to-body weight ratio ([3]; FIG. 15): decreased
- Histological properties of atopic dermatitis (skin staining) ([3]; FIG. 16): changes the histological properties of atopic dermatitis
- Atopic dermatitis-related cytokines of plasma and skin ([3]; FIGS. 13 and 14): reduced
- Reduction of scratching behavior compared to the control group (vehicle) ([3]; dosed groups): at least 30%
- Symptoms of atopic dermatitis ([3]; twice a day for 28 days, FIGS. 11 to 16): ameliorates symptoms of atopic dermatitis
